Test results from ChEMBL document CHEMBL4196016, “Regioselective synthesis of 7-O-esters of the flavonolignan silibinin and SARs lead to compounds with overadditive neuroprotective effects” (Eur J Med Chem, 2018).
Active and inactive are the calls of the source. The calls are words filed in the database; no cut-off is given here.

What was measured:
PC-12 = assay: Induction of rat PC12 cells differentiation assessed as neurite outgrowth at 10 uM after 24 hrs relative to control; assay type: functional
[1] = Metabolic stability of the compound in human pooled plasma at 50 uM by LCMS analysis; assay type: ADME, cell-free; conditions: TDE = time-dependent effect
BV-2 = assay: Antiinflammatory activity in mouse BV2 cells assessed as inhibition of LPS-induced microglial activation after 24 hrs by Griess reagent based assay; assay type: functional, cell-based; conditions: BV-2, 24 h
[2] = target: T1, Amyloid-beta precursor protein (Homo sapiens, UniProt P05067); assay: Inhibition of amyloid beta 42 (unknown origin) expressed in Escherichia coli BL21 (DE3) aggregation at 100 uM incubated for overnight by Th-S fluorescence staining based UV-Vis spectrophotometer (reference value: 0 +/- 4.4%)
[3] = target: T1, Amyloid-beta precursor protein; assay: Inhibition of amyloid beta 42 (unknown origin) expressed in Escherichia coli BL21 (DE3) aggregation at 10 uM incubated for overnight by Th-S fluorescence staining based UV-Vis spectrophotometer (reference value: 0 +/- 1%)
HT-22 [4] = assay: Neuroprotective activity against IAA-induced ischemia in mouse HT22 cells assessed as increase in cell viability cotreated with IAA for 2 hrs followed by IAA wash out measured after 24 hrs by MTT assay; assay type: functional, cell-based
[5] = Stability of the compound in assay medium at 50 uM after 24 hrs by LCMS analysis; assay type: physicochemical; conditions: read-out: Stability
[6] = Drug metabolism in human pooled plasma assessed as cleavage of ester bond at 50 uM up to 24 hrs by LCMS analysis; assay type: ADME, cell-free
[7] = Antioxidant activity assessed as reduction of Fe3+-TPTZ to Fe2+-TPTZ measured every 15 secs for 4 mins by FRAP assay; assay type: functional
HT-22 [8] = assay: Neurotoxicity against mouse HT22 cells assessed as decrease in cell viability at 25 uM measured after 24 hrs by MTT assay; assay type: toxicity, cell-based; conditions: ht-22, 24 h
[9] = target: T2, Microtubule-associated protein tau (Homo sapiens, UniProt P10636); assay: Inhibition of tau (unknown origin) aggregation expressed in Escherichia coli (DE3) at 100 uM incubated for overnight by Th-S fluorescence staining based UV-Vis spectrophotometer (reference value: 0.0 +/- 2.4%)
[10] = Stability of the compound in assay medium at 50 uM by LCMS analysis; assay type: physicochemical; conditions: TDE = time-dependent effect
[11] = target: T2, Microtubule-associated protein tau; assay: Inhibition of tau (unknown origin) aggregation expressed in Escherichia coli (DE3) at 10 uM incubated for overnight by Th-S fluorescence staining based UV-Vis spectrophotometer (reference value: 0.0 +/- 1.4%)
HT-22 [12] = assay: Neuroprotective activity against glutamate-induced mouse HT22 cells assessed as cell survival at 10 to 25 uM cotreated with glutamate measured after 24 hrs by MTT assay relative to control; assay type: functional
[13] = Metabolic stability of the compound in human pooled plasma assessed as compound remaining at 50 uM after 4 hrs by LCMS analysis; assay type: ADME, cell-free; conditions: read-out: Stability
[14] = Half life in human pooled plasma at 50 uM up to 24 hrs by LCMS analysis; assay type: ADME, cell-free
[15] = Drug metabolism in human pooled plasma assessed as 7-Oferuloyl-2,3-dehydrosilibinin formation at 50 uM up to 24 hrs by LCMS analysis; assay type: ADME, cell-free
HT-22 [16] = assay: Neuroprotective activity against glutamate-induced mouse HT22 cells assessed as increase in cell survival at 25 uM cotreated with glutamate measured after 24 hrs by MTT assay; assay type: functional, cell-based
HT-22 [17] = assay: Neuroprotective activity against glutamate-induced mouse HT22 cells assessed as increase in cell survival at 25 to 50 uM cotreated with glutamate measured after 24 hrs by MTT assay; assay type: functional, cell-based
[18] = Antioxidant activity assessed as reduction of Fe3+-TPTZ to Fe2+-TPTZ using 1:1 test compound to ferulic acid ratio measured every 15 secs for 4 mins by FRAP assay; assay type: functional
HT-22 [19] = assay: Neuroprotective activity against glutamate-induced mouse HT22 cells assessed as increase in cell survival at 1 to 25 uM cotreated with glutamate measured after 24 hrs by MTT assay; assay type: functional, cell-based
[20] = Antioxidant activity assessed as reduction of Fe3+-TPTZ to Fe2+-TPTZ using equimolar mixture of test compound and cinnamic acid measured every 15 secs for 4 mins by FRAP assay; assay type: functional
HT-22 [21] = assay: Neurotoxicity against mouse HT22 cells assessed as decrease in cell viability at 25 uM using 1:1 test compound to ferulic acid ratio measured after 24 hrs by MTT assay; assay type: toxicity, cell-based; conditions: ht-22, 24 h
HT-22 [22] = assay: Neurotoxicity against mouse HT22 cells assessed as decrease in cell viability at 25 uM using 1:1 test compound to cinnamic acid ratio measured after 24 hrs by MTT assay; assay type: toxicity, cell-based; conditions: ht-22, 24 h
[23] = Antioxidant activity assessed as ferric ion reduction by measuring FeSO4 equivalents reducing Fe3+-TPTZ to Fe2+-TPTZ measured every 15 secs for 4 mins by FRAP assay; assay type: functional
HT-22 [24] = assay: Neuroprotective activity against glutamate-induced mouse HT22 cells assessed as increase in cell survival at 1 to 25 uM using 1:1 test compound to ferulic acid ratio cotreated with glutamate measured after 24 hrs by MTT assay; assay type: functional, cell-based
HT-22 [25] = assay: Neuroprotective activity against glutamate-induced mouse HT22 cells assessed as increase in cell survival at 10 uM cotreated with glutamate measured after 24 hrs by MTT assay; assay type: functional, cell-based
[26] = Antioxidant activity assessed as reduction of Fe3+-TPTZ to Fe2+-TPTZ using 1:1 test compound to silibinin ratio measured every 15 secs for 4 mins by FRAP assay; assay type: functional
HT-22 [27] = assay: Neurotoxicity against mouse HT22 cells assessed as decrease in cell viability at 25 uM using 1:1 test compound to silibinin ratio measured after 24 hrs by MTT assay; assay type: toxicity, cell-based; conditions: ht-22, 24 h
HT-22 [28] = assay: Neuroprotective activity against glutamate-induced mouse HT22 cells assessed as increase in cell survival at 1 to 25 uM using 1:1 test compound to silibinin ratio cotreated with glutamate measured after 24 hrs by MTT assay; assay type: functional, cell-based
HT-22 [29] = assay: Neuroprotective activity against glutamate-induced mouse HT22 cells assessed as cell survival at 25 uM cotreated with glutamate measured after 24 hrs by MTT assay relative to control; assay type: functional
[30] = Antioxidant activity assessed as reduction of Fe3+-TPTZ to Fe2+-TPTZ using equimolar mixture of test compound and silibinin measured every 15 secs for 4 mins by FRAP assay; assay type: functional
HT-22 [31] = assay: Neurotoxicity against mouse HT22 cells assessed as decrease in cell viability at 10 uM measured after 24 hrs by MTT assay; assay type: toxicity, cell-based; conditions: ht-22, 24 h
[32] = target: T2, Microtubule-associated protein tau; assay: Inhibition of tau (unknown origin) aggregation expressed in Escherichia coli (DE3) incubated for overnight by Th-S fluorescence staining based UV-Vis spectrophotometer
[33] = target: T1, Amyloid-beta precursor protein; assay: Inhibition of amyloid beta 42 (unknown origin) expressed in Escherichia coli BL21 (DE3) aggregation incubated for overnight by Th-S fluorescence staining based UV-Vis spectrophotometer
HT-22 [34] = assay: Neuroprotective activity against glutamate-induced mouse HT22 cells assessed as increase in cell survival at 5 to 25 uM cotreated with glutamate measured after 24 hrs by MTT assay; assay type: functional, cell-based

T2 sequence (P10636 whole entry): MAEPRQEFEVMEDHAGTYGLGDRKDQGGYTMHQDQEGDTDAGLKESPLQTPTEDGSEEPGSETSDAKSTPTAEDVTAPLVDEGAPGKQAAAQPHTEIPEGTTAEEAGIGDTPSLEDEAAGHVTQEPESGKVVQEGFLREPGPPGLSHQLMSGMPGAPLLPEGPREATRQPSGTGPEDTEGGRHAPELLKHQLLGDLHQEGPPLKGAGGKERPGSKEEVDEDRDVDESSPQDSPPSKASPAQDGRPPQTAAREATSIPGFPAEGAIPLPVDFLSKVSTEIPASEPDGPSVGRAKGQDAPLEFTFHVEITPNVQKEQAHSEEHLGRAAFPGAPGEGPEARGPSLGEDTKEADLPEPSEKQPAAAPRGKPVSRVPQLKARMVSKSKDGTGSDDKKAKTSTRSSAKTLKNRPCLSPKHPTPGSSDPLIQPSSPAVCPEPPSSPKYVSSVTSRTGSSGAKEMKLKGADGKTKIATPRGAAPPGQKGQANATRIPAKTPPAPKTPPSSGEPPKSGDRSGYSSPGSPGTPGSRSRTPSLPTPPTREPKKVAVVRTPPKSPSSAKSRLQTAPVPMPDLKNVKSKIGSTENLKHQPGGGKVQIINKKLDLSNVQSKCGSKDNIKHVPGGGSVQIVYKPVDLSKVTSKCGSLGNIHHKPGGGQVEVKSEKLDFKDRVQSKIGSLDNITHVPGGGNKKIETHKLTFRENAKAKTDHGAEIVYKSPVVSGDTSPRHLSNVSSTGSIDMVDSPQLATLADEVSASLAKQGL
T1 sequence (P05067 whole entry): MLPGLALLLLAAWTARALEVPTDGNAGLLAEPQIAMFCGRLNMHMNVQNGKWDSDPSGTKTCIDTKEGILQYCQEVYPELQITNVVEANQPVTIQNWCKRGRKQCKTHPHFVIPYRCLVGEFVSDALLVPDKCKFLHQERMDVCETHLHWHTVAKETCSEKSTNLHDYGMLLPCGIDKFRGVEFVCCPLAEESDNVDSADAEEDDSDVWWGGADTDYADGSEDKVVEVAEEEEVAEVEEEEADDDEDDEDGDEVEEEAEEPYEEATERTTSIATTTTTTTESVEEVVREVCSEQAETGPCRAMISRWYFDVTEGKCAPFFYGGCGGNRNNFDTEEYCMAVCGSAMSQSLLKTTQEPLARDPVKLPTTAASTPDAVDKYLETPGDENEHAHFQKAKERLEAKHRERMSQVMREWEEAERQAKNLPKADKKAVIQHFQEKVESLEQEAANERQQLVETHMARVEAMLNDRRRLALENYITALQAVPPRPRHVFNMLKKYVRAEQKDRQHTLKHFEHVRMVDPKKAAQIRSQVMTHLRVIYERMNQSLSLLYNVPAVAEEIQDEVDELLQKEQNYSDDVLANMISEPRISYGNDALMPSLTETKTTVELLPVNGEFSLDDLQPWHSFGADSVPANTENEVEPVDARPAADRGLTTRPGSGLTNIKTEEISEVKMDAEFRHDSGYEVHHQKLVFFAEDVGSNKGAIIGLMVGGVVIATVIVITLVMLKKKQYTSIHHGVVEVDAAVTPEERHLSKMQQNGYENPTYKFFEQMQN

COc1cc(/C=C/C(=O)Oc2cc(O)c3c(c2)O[C@H](c2ccc4c(c2)OC(c2ccc(O)c(OC)c2)C(CO)O4)[C@@H](O)C3=O)ccc1O (stereo partly specified)
Activity (PC-12): 47%
Stability [1]: Tde
EC50 (BV-2): 6.5 µM
inhibition [2]: 54.4%
inhibition [3]: 16.8%
EC50 (HT-22 [4]): > 10000 nM
remaining at 24 h, 50 µM [5]: 25%
Drug metabolism [6]: Metabolite_Detected
Activity [7]: Active
Activity (HT-22 [8]): Toxic
inhibition [9]: 64.7%
Stability [10]: Tde
inhibition [11]: 30.4%
Survival (HT-22 [12]): 50%
remaining at 4 h, 50 µM [13]: 20%
half-life at 50 µM [14]: 90 min
Drug metabolism [15]: Metabolite_Notdetected

COc1cc(C2Oc3cc([C@H]4Oc5cc(OC(=O)c6ccccc6)cc(O)c5C(=O)[C@@H]4O)ccc3OC2CO)ccc1O (stereo partly specified)
Activity [7]: inactive
Activity (HT-22 [16]): inactive

COc1cc(C2Oc3cc([C@H]4Oc5cc(OC(=O)/C=C/c6cc(OC)c(O)c(OC)c6)cc(O)c5C(=O)[C@@H]4O)ccc3OC2CO)ccc1O (stereo partly specified)
Activity (HT-22 [17]): Active
Activity [7]: Active

COc1cc(C2Oc3cc([C@H]4Oc5cc(O)cc(O)c5C(=O)[C@@H]4O)ccc3OC2CO)ccc1O (stereo partly specified) [SILIBININ]
Activity [18]: Active
Activity (PC-12): 38%
EC50 (BV-2): > 10 µM
Activity (HT-22 [19]): inactive
Activity [20]: Active
inhibition [2]: 16%
inhibition [3]: 4.8%
EC50 (HT-22 [4]): > 10000 nM
Activity (HT-22 [21]): Toxic
Activity (HT-22 [8]): Non-Toxic
inhibition [9]: 10.1%
inhibition [11]: 2%
Activity (HT-22 [22]): Toxic
Activity [23]: 0.6 equiv
Activity (HT-22 [24]): inactive

COc1cc(C(=O)Oc2cc(O)c3c(c2)O[C@H](c2ccc4c(c2)OC(c2ccc(O)c(OC)c2)C(CO)O4)[C@@H](O)C3=O)ccc1O (stereo partly specified)
Activity [7]: Active
Activity (HT-22 [16]): Active

COc1cc(C2Oc3cc([C@H]4Oc5cc(OC(=O)CCc6ccccc6)cc(O)c5C(=O)[C@@H]4O)ccc3OC2CO)ccc1O (stereo partly specified)
Activity (HT-22 [17]): inactive
Activity [7]: inactive

O=C1O[C@H]([C@@H](O)CO)C(O)=C1O
Activity [23]: 2 equiv

COc1cc(C2Oc3cc([C@H]4Oc5cc(OC(=O)CCc6ccc7c(c6)OC(C)(C)O7)cc(O)c5C(=O)[C@@H]4O)ccc3OC2CO)ccc1O (stereo partly specified)
Activity (HT-22 [17]): inactive
Activity [7]: inactive

COc1cc(C2Oc3cc([C@H]4Oc5cc(OC(=O)/C=C/c6ccc7c(c6)OC(C)(C)O7)cc(O)c5C(=O)[C@@H]4O)ccc3OC2CO)ccc1O (stereo partly specified)
Activity (HT-22 [25]): Active
Activity (HT-22 [17]): Active
Activity [7]: inactive
Activity (HT-22 [16]): inactive

COc1cc(C2Oc3cc([C@H]4Oc5cc(OC(=O)c6cc(OC)c(O)c(OC)c6)cc(O)c5C(=O)[C@@H]4O)ccc3OC2CO)ccc1O (stereo partly specified)
Activity [7]: Active
Activity (HT-22 [16]): Active

COc1cc(/C=C/C(=O)O)ccc1O [FERULATE]
Activity (PC-12): inactive
EC50 (BV-2): > 10 µM
Activity [26]: Active
Activity (HT-22 [19]): inactive
Activity (HT-22 [27]): Toxic
EC50 (HT-22 [4]): > 10000 nM
Activity [7]: Active
Activity (HT-22 [8]): Non-Toxic
Activity (HT-22 [28]): inactive

O=c1c(O)c(-c2ccc(O)c(O)c2)oc2cc(O)cc(O)c12 [QUERCETIN]
Survival (HT-22 [29]): 80%

O=C(O)/C=C/c1ccccc1 [CINNAMIC ACID]
Activity (PC-12): inactive
EC50 (BV-2): > 10 µM
Activity (HT-22 [27]): Toxic
EC50 (HT-22 [4]): > 10000 nM
Activity [7]: inactive
Activity [30]: Active

COc1cc(CCC(=O)Oc2cc(O)c3c(c2)O[C@H](c2ccc4c(c2)OC(c2ccc(O)c(OC)c2)C(CO)O4)[C@@H](O)C3=O)ccc1O (stereo partly specified)
Activity (HT-22 [17]): inactive
Activity [7]: Active

Cc1c(C)c2c(c(C)c1O)CCC(C)(C(=O)O)O2 (stereo unspecified)
Activity [23]: 1.8 equiv

COc1cc(C2Oc3cc([C@H]4Oc5cc(OC(=O)c6ccc7c(c6)OC(C)(C)O7)cc(O)c5C(=O)[C@@H]4O)ccc3OC2CO)ccc1O (stereo partly specified)
Activity (HT-22 [25]): Active
Activity [7]: inactive
Activity (HT-22 [16]): inactive

COc1cc(/C=C/C(=O)Oc2cc(O)c3c(c2)O[C@H](c2ccc4c(c2)O[C@H](c2ccc(O)c(OC)c2)[C@@H](CO)O4)[C@@H](O)C3=O)ccc1O
Activity (PC-12): 50%
Activity (HT-22 [31]): Toxic
EC50 (BV-2): 9.8 µM
inhibition [2]: 52.7%
inhibition [3]: 13.2%
EC50 (HT-22 [4]): 1400 nM
Activity [7]: Active
inhibition [9]: 67.2%
inhibition [11]: 36.8%
IC50 [32]: 27.2 µM
IC50 [33]: 85.5 µM

COc1cc(C2Oc3cc([C@H]4Oc5cc(O)cc(O)c5C(=O)[C@@H]4O)ccc3OC2COC(=O)/C=C/c2ccccc2)ccc1O (stereo partly specified)
Activity (HT-22 [25]): inactive
Activity (HT-22 [16]): Active

COc1cc(C2Oc3cc([C@H]4Oc5cc(OC(=O)CCc6cc(OC)c(O)c(OC)c6)cc(O)c5C(=O)[C@@H]4O)ccc3OC2CO)ccc1O (stereo partly specified)
Activity (HT-22 [17]): inactive
Activity [7]: Active

COc1cc(C2Oc3cc([C@H]4Oc5cc(OC(=O)/C=C/c6ccccc6)cc(O)c5C(=O)[C@@H]4O)ccc3OC2CO)ccc1O (stereo partly specified)
Activity (PC-12): 40%
EC50 (BV-2): 4.2 µM
inhibition [2]: 61.1%
Activity (HT-22 [25]): Active
inhibition [3]: 17.1%
EC50 (HT-22 [4]): 1500 nM
Activity (HT-22 [17]): Active
Activity [7]: inactive
Activity (HT-22 [16]): inactive
Activity (HT-22 [8]): Non-Toxic
inhibition [9]: 76.1%
inhibition [11]: 37.1%
Activity (HT-22 [34]): Active

COc1cc(/C=C/C(=O)Oc2cc(O)c3c(c2)O[C@H](c2ccc4c(c2)O[C@@H](c2ccc(O)c(OC)c2)[C@H](CO)O4)[C@@H](O)C3=O)ccc1O
Activity (PC-12): 67%
Activity (HT-22 [31]): Toxic
EC50 (BV-2): 10.1 µM
inhibition [2]: 73%
Activity (HT-22 [25]): Active
inhibition [3]: 14.2%
EC50 (HT-22 [4]): 2200 nM
Activity [7]: Active
inhibition [9]: 84%
inhibition [11]: 44.5%
IC50 [32]: 12.9 µM
IC50 [33]: 43.6 µM
